Values quoted from earlier work as cited in patent publication US7691423B2, “Method of treating inflammation disorders using extracts of passion fruit” (priority 2005, dated 2010).

Key:
[1] = test system: vascular contraction
[2] = test system: spontaneously hypertensive rat (SHR) cells; details: SHR cells in vitro
[3] = test system: iNOS

Structure (SMILES): O=c1ccc2cc(O)c(O)cc2o1 [esculetin]
- Large dose acetylcholine-induced vascular contraction [1]: inhibited

Structure (SMILES): O=c1c(O)c(-c2ccc(O)cc2)oc2cc(O)cc(O)c12 [kaempferol]
- NOLA-dependent spontaneous aortic ring contraction [2]: inhibit
- Large dose acetylcholine-induced vascular contraction [1]: inhibited

Structure (SMILES): O=c1c(O)c(-c2ccc(O)c(O)c2)oc2cc(O)cc(O)c12 [quercetin]
- NOLA-dependent spontaneous aortic ring contraction [2]: inhibit
- Large dose acetylcholine-induced vascular contraction [1]: inhibited
- iNOS mRNA and the production of nitric oxide [3]: inhibit
